Measurements published in patent publication US12071404B2, “Aza (indole)-, benzothiophene-, and benzofuran-3-sulfonamides” (UCB Pharma GmbH, priority 2016, dated 2024).

Experiments:
[1] = cited from earlier work
[2] = in vivo; cited from earlier work
GPR17 [3] = molecular target: T1, GPR17 (Homo sapiens, UniProt Q13304); details: activating ligands for GPR17; cited from earlier work
Target sequence in this assay (Q13304 whole entry, species assumed): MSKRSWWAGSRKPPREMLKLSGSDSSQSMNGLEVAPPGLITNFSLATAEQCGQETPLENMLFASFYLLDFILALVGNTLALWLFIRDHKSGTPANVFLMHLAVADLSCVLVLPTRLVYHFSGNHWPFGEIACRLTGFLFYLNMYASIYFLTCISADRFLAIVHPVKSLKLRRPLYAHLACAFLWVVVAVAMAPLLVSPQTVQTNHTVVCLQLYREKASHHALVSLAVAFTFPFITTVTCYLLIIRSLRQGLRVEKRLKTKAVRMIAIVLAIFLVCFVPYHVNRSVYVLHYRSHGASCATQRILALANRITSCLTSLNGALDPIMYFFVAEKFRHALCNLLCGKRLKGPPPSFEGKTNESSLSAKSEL

[4] = exposure to air and light; cited from earlier work
GPR17 [5] = molecular target: T1, GPR17; experiment: cAMP accumulation functional assay (HTRF, Schild analysis); format: cell-based; set-up: host or cells: Flp-In T-REx CHO; details: CHO hGPR17 cells, Schild analysis vs MDL29,951, 5 μM forskolin, read-out: cAMP assay pA2 (converted)
How it was run: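 Antagonist affinity (pA2) came from Schild plots of dose ratios, based on MDL29,951 concentration-response curves fitted by 4-parameter logistic. The read-out was HTRF cAMP in 5,000 doxycycline-induced CHO hGPR17 cells per well, with 30 min compound preincubation and 60 min stimulation, at room temperature in pH 7.4 buffer.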
Target sequence in this assay (Q13304 whole entry): as the sequence (Q13304 whole entry, species assumed) above

GPR17 [6] = molecular target: T1, GPR17; experiment: Calcium mobilization functional assay (GPR17 Ca2+ assay); format: cell-based; set-up: host or cells: Flp-In T-REx CHO; details: CHO hGPR17 cells, inhibition of 50 nM MDL29,951, Calcium 5 dye, FLIPR; read-out: Ca2+ assay pIC50 (converted)
How it was run: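 pIC50 values were fitted with a 4-parameter logistic curve. They reflect test-compound inhibition of cytosolic Ca2+ release evoked by 50 nM MDL29,951, tracked as Calcium 5 fluorescence at room temperature. Cells were CHO Flp-In T-REx stably carrying human GPR17, induced with doxycycline 1 μg/mL for 16-20 h.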
Target sequence in this assay (Q13304 whole entry): as the sequence (Q13304 whole entry, species assumed) above

Row | Kb (GPR17 [5]) [nM] | IC50 (GPR17 [6]) [nM] | Structure (SMILES) | further results
1 | – | – | O=C(Nc1cccc2c(=O)cc(-c3nnn[nH]3)oc12)c1ccc(OCCCCc2ccccc2)cc1 [pranlukast] | protein binding [1]: high protein binding; brain penetration [2]: poor brain penetration
2 | – | – | CC(C)(O)c1ccccc1CC[C@@H](SCC1(CC(=O)O)CC1)c1cccc(/C=C/c2ccc3ccc(Cl)cc3n2)c1 [montekulast, Montelukast] | protein binding [1]: high protein binding; brain penetration [2]: poor brain penetration
3 | – | – | NCC(=O)CCC(=O)O [Compound 5-ALA, 5 amino levulinic acid] | amounts needed in the GPR17 assays (reported affinity quite low) (GPR17 [3]): three digit micromolar range
4 | – | – | NCc1[nH]cc(CCC(=O)O)c1CC(=O)O [PBG, porphobilinogen] | amounts needed in the GPR17 assays (reported affinity quite low) (GPR17 [3]): mM range; chemical stability [4]: rapidly decomposes after exposure to air and light
5 | < 3.16 | 3.16 to 31.6 | Cc1c(Br)ccc2c(S(=O)(=O)Nc3ncc(Cl)cc3F)c[nH]c12 [Compound I-326, 6-bromo-N-(5-chloro-3-fluoropyridin-2-yl)-7-methyl-1H-indole-3-sulfonamide] | –
6 | < 3.16 | < 3.16 | O=S(=O)(Nc1cc2nsnc2cc1F)c1c[nH]c2cc(Br)ccc12 [Compound I-193, 6-bromo-N-(6-fluoro-2,1,3-benzothiadiazol-5-yl)-1H-indole-3-sulfonamide] | –
7 | 3.16 to 31.6 | 3.16 to 31.6 | COc1nc(NS(=O)(=O)c2c[nH]c3c(F)c(Cl)c(F)cc23)c(F)cc1Cl [Compound I-340, 6-chloro-N-(5-chloro-3-fluoro-6-methoxypyridin-2-yl)-5,7-difluoro-1H-indole-3-sulfonamide] | –
8 | 3.16 to 31.6 | 3.16 to 31.6 | Cc1cnc(NS(=O)(=O)c2c[nH]c3cc(Cl)ccc23)c(F)c1 [Compound I-279, 6-chloro-N-(3-fluoro-5-methylpyridin-2-yl)-1H-indole-3-sulfonamide] | –
9 | > 31.6 | 3.16 to 31.6 | N#Cc1ccc(NS(=O)(=O)c2c[nH]c3cc(-c4ccccc4)ccc23)c(F)c1 [Compound I-233, N-(4-cyano-2-fluorophenyl)-6-phenyl-1H-indole-3-sulfonamide] | –
10 | 3.16 to 31.6 | 3.16 to 31.6 | O=S(=O)(Nc1nc(F)c(Cl)cc1F)c1c[nH]c2c3c(ccc12)CCC3 [Compound I-317, N-(5-chloro-3,6-difluoropyridin-2-yl)-1,6,7,8-tetrahydrocyclopenta[g]indole-3-sulfonamide] | –
11 | < 3.16 | < 3.16 | O=S(=O)(Nc1cc(F)c(OCC(F)F)cc1F)c1c[nH]c2cc(Cl)ccc12 [Compound I-246, 6-chloro-N-[4-(2,2-difluoroethoxy)-2,5-difluorophenyl]-1H-indole-3-sulfonamide] | –
12 | < 3.16 | < 3.16 | COc1nc(NS(=O)(=O)c2c[nH]c3cc(Cl)c(Br)cc23)c(F)cc1CC#N [Compound I-324, 5-bromo-6-chloro-N-[5-(cyanomethyl)-3-fluoro-6-methoxypyridin-2-yl]-1H-indole-3-sulfonamide] | –
13 | < 3.16 | < 3.16 | O=S(=O)(Nc1cc(F)c(Cl)cc1F)c1c[nH]c2c1ccc1cccnc12 [Compound I-118, N-(4-chloro-2,5-difluorophenyl)-1H-pyrrolo[3,2-h]quinoline-3-sulfonamide] | –
14 | 3.16 to 31.6 | 3.16 to 31.6 | COc1cc(F)c(NS(=O)(=O)c2c[nH]c3cc(Cl)ccc23)cc1F [Compound I-298, 6-chloro-N-(2,5-difluoro-4-methoxyphenyl)-1H-indole-3-sulfonamide] | –
15 | < 3.16 | < 3.16 | COc1nc(NS(=O)(=O)c2c[nH]c3cc(Cl)ccc23)c(F)cc1CC#N [Compound I-255, 6-chloro-N-[5-(cyanomethyl)-3-fluoro-6-methoxypyridin-2-yl]-1H-indole-3-sulfonamide] | –
16 | 3.16 to 31.6 | 3.16 to 31.6 | COc1nc(NS(=O)(=O)c2csc3cc(Cl)ccc23)c(F)cc1Cl [Compound I-314, 6-chloro-N-(5-chloro-3-fluoro-6-methoxypyridin-2-yl)-1-benzothiophene-3-sulfonamide] | –
